In publication PMC11582634, “Discovering the inhibition of YAP/TEAD Hippo signaling pathway via new pyrazolone derivatives: synthesis, molecular docking and biological investigations” (Scientific Reports, 2024):

Legend:
[1] = MTT assay, WI-38 normal human lung fibroblast cells; assay type: cell-based; settings: human, WI-38 normal lung fibroblast cells
Description: (§1) Mammary gland (MCF-7;# ATCC HTB-22), colorectal adenocarcinoma (HCT-116; # ATCC CCL-247)), hepatocellular carcinoma (HepG-2; #ATCC HB-8065), and human lung fibroblast (WI-38; # ATCC CCL-75). The ATCC cell line was obtained via the Holding Company for Biological Products and Vaccines (VACSERA), Cairo, Egypt.
(§2) The MTT test was utilized to ascertain the pyrazolone derivatives’ inhibitory effects on cell growth using the aforementioned cell lines. This colorimetric assay is based on the transformation of yellow tetrazolium bromide (MTT) by mitochondrial succinate dehydrogenase in living cells into a purple formazan derivative. The RPMI-1640 medium was supplemented with 10% fetal bovine serum to cultivate cell lines. At 37° C in an incubator with 5% CO2, 100 units/mL of penicillin and 100 µg/mL of streptomycin were introduced as antibiotics. The cell lines were seeded by 1.0 × 10^4 cells/well in a 96-well plate and kept at 37 °C for 24 h with 5% CO2. […] The colorimetric test is performed at 630 nm absorbance and recorded using a plate reader (EXL 800, USA)[32].
(§3) GraphPad Prism 6 (San Diego, CA) (GraphPad Prism 6, https://www.graphpad.com/scientific-software/prism/) was used to calculate the IC50 values and the data was expressed as mean ± SE.

[2] = tested on: HCT-116, HepG2, and MCF-7; test: MTT assay, whole panel of cancer cell lines (result in words); assay type: cell-based, human; settings: 48 h, compared with Sorafenib
Description: as §1
The MTT test was utilized to ascertain the pyrazolone derivatives’ inhibitory effects on cell growth using the aforementioned cell lines. This colorimetric assay is based on the transformation of yellow tetrazolium bromide (MTT) by mitochondrial succinate dehydrogenase in living cells into a purple formazan derivative. The RPMI-1640 medium was supplemented with 10% fetal bovine serum to cultivate cell lines. At 37° C in an incubator with 5% CO2, 100 units/mL of penicillin and 100 µg/mL of streptomycin were introduced as antibiotics. The cell lines were seeded by 1.0 × 10^4 cells/well in a 96-well plate and kept at 37 °C for 24 h with 5% CO2. Following incubation, the cells were subjected to several concentrations of newly synthesized pyrazolone derivatives and left for 48 h incubation.20 µL of a 5 mg/mL MTT solution was added and incubated for 4 h after the drug treatment. To dissolve the purple formazan produced in each well, 100 µL of dimethyl sulfoxide (DMSO) was applied. The colorimetric test is performed at 630 nm absorbance and recorded using a plate reader (EXL 800, USA)[32].
as §3

[3] = DPPH free radical scavenging (antioxidant) assay; settings: in-vitro
Method: The synthesized pyrazolone derivatives’ capacity to scavenge free radicals DPPH was assessed using a modified Zheleva-Dimitrova technique. Also, the DPPH radical was investigated to L-ascorbic acid with concentrations (10–100 μM) that serving as the standard positive control and the scavenging percent was calculated by Eq. 1.1 [drawing 1]

[4] = tested on: MCF-7; test: MTT assay, MCF-7 mammary gland cells; assay type: cell-based; settings: Homo sapiens, MCF7, 48 h, mean ± SE, read-out: IC50 against MCF-7
[5] = tested on: WI-38; test: MTT assay, WI-38 normal human lung fibroblast cells; assay type: cell-based; settings: 48 h, compared with SOR
Description: as §1, §2, §3

[6] = tested on: HepG-2; test: MTT assay, HepG-2 hepatocellular carcinoma cells; assay type: cell-based; settings: Homo sapiens, HepG2, 48 h, mean ± SE, read-out: IC50 against HepG-2
[7] = tested on: HCT-116; test: MTT assay, HCT-116 colorectal adenocarcinoma cells; assay type: cell-based; settings: Homo sapiens, 48 h, mean ± SE, read-out: IC50 against HCT-116

| Compound | IC50 at 48 h [1] [µM] | IC50 [3] [µM] | melting point [°C] | IC50 [4] [µM] | IC50 [6] [µM] | IC50 [7] [µM] | Impact on all panels of cancer cell lines (in words) [2] | Cytotoxic effect on WI-38 normal cells (in words) [5] |
| --- | --- | --- | --- | --- | --- | --- | --- | --- |
| CN(C)c1ccc(-c2cc(-c3ccc(/N=N/C4C(=O)N(c5ccccc5)N=C4N)cc3)nc(N)c2C#N)cc1 (stereo not drawn) [Compound 10, (E)-2-amino-6-(4-((3-amino-5-oxo-1-phenyl-4,5-dihydro-1H-pyrazole-4-yl)diazenyl)phenyl)-4-(4-(dimethylamino)phenyl)nicotinonitrile] |  | 74.3 ± 0.38 | 116 |  |  |  | moderate to weak impact |  |
| CN(C)c1ccc(C2CC(c3ccc(N=NC4C(=O)N(c5ccccc5)N=C4N)cc3)=NN2c2ccccc2)cc1 (stereo not drawn) [Compound 4, 3-amino-4-((4-(5-(4-(dimethylamino)phenyl)-1-phenyl-4,5-dihydro-1H-pyrazole-3-yl)phenyl)diazenyl)-1-phenyl-1H-pyrazole-5(4H)-one] |  | 19.88 ± 0.15 | 96 | 6.97 ± 0.5 | 5.85 ± 0.4 | 7.67 ± 0.5 |  | no cytotoxic effects |
| CN(C)c1ccc(C2C=C(c3ccc(/N=N/C4C(=O)N(c5ccccc5)N=C4N)cc3)OC(N)=C2C#N)cc1 (stereo not drawn) [Compound 9, (E)-2-amino-6-(4-((3-amino-5-oxo-1-phenyl-4,5-dihydro-1H-pyrazole-4-yl)diazenyl)phenyl)-4-(4-(dimethylamino)phenyl)-4H-pyran-3-carbonitrile] |  | 47.07 ± 0.24 | 139 |  |  |  | moderate to weak impact |  |
| CC(=O)N1N=C(c2ccc(N=NC3C(=O)N(c4ccccc4)N=C3N)cc2)CC1c1ccc(N(C)C)cc1 (stereo not drawn) [Compound 6, 4-((4-(1-acetyl-5-(4-(dimethylamino)phenyl)-4,5-dihydro-1H-pyrazole-3-yl)phenyl)diazenyl)-3-amino-1-phenyl-1H-pyrazole-5(4H)-one] |  | 32.4 ± 0.2 | 74 | 19.8 ± 1.5 | 25.6 ± 1.7 | 16.5 ± 1.3 |  |  |
| 3-amino-4-((4-(6-(4-(dimethylamino)phenyl)-2-oxo-1,2-dihydropyridine-4-yl)phenyl)diazenyl)-1-phenyl-1H-pyrazole-5(4H)-one [Compound 7] |  | 93.7 ± 0.47 |  |  |  |  | moderate to weak impact |  |
| CN(C)c1ccc(-c2cc(-c3ccc(N=NC4C(=O)N(c5ccccc5)N=C4N)cc3)nc(=S)[nH]2)cc1 (stereo not drawn) [Compound 8, 3-amino-4-((4-(6-(4-(dimethylamino)phenyl)-2-thioxo-1,2-dihydropyrimidin-4-yl)phenyl)diazenyl)-1-phenyl-1H-pyrazol-5(4H)-one] |  | 65.54 ± 0.32 | 103 |  |  |  | moderate to weak impact |  |

Further lines, with some results ahead:

| IC50 at 48 h [1] [µM] | IC50 [3] [µM] | melting point [°C] | IC50 [4] [µM] | IC50 [6] [µM] | IC50 [7] [µM] | Compound | Impact on all panels of cancer cell lines (in words) [2] | Cytotoxic effect on WI-38 normal cells (in words) [5] |
| --- | --- | --- | --- | --- | --- | --- | --- | --- |
| 20.3 ± 0.45 |  |  |  |  |  | CNC(=O)c1cc(Oc2ccc(NC(=O)Nc3ccc(Cl)c(C(F)(F)F)c3)cc2)ccn1 [Sorafenib, reference compound] |  |  |
|  | 53.67 ± 0.29 | 92 |  |  |  | CN(C)c1ccc(-c2cc(-c3ccc(/N=N/C4C(=O)N(c5ccccc5)N=C4N)cc3)[nH]c(=O)c2C#N)cc1 (stereo not drawn) [Compound 11, (E)-6-(4-((3-amino-5-oxo-1-phenyl-4,5-dihydro-1H-pyrazol-4-yl)diazenyl)phenyl)-4-(4-(dimethylamino)phenyl)-2-oxo-1,2-dihydropyridine-3-carbonitrile] | moderate to weak impact |  |
|  | 16.81 ± 0.1 |  |  |  |  | O=C1O[C@H]([C@@H](O)CO)C(O)=C1O [L-ascorbic acid, reference compound] |  |  |
